The values below come from ChEMBL document CHEMBL1201862, “PubChem BioAssay data set” (2004).

Each structure is given as a SMILES string.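 Tested at 5 concentrations; 48 h exposure; 96-well plates; endpoints linearly interpolated, else capped at highest concentration. GI50 = concentration required for 50% inhibition of growth.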 Activity calls are given as the source filed them. Cut-off read from the data, not from the text of the source: active = GI50 up to about 1.1 µM and inactive = higher. Where a SMILES comes first, the peptide text is derived from it. [ ]: non-standard residue; d: D form. The star is where a group is joined. Hyp = O=C(O)[CH]1C[CH](O)CN1; Cbz = O=C(OCc1ccccc1)*

Some test systems named below: SK-MEL-28; U-251; UO-31; SK-MEL-5; Malme-3M; COLO 205; RXF 393; UACC-257; SF-295; NCI-H522; MDA-MB-435; OVCAR-3; MDA-MB-231; PC-3; MDA-N; LOX IMVI; ACHN; SW-620; SN12C; 786-0.
Holding throughout (assay): NCI tumour cell line growth inhibition, 48 h

In the case of `CCCCCCCCCCCCCC/C(C(=O)O)=C(\C)C(=O)O`, the GI50 in the experiment on SK-MEL-28, in the experiment with U-251, in the experiment on UO-31, with SK-MEL-5, with Malme-3M and in the experiment on COLO 205 was > 100 µM (inactive) each time. Also, the GI50 with RXF 393, in the experiment with UACC-257, with SF-295, with NCI-H522, in the experiment on MDA-MB-435 and in the experiment with OVCAR-3 was > 100 µM (inactive) each time. Further, the GI50 in the experiment with MDA-MB-231 was > 100 µM (inactive); in the experiment on PC-3, 38.2 µM (inactive); in the experiment with MDA-N it was > 100 µM (inactive); in the experiment on LOX IMVI, > 100 µM (inactive); in the experiment on ACHN, > 100 µM (inactive); with SW-620 it was > 100 µM (inactive). The GI50 in the experiment with SN12C and in the experiment with 786-0 was > 100 µM (inactive) each time.
`COC(=O)C1OC(O[C@H]2CC[C@]3(C)[C@H]4CC=C5[C@@H]6CC(C)(C)CC[C@]6(C(=O)OC6OCC(O)C(O)C6OC6OC(C)C(OC7OCC(OC8OCC(O)C(O)C8O)C(O)C7O)C(O)C6O)[C@H](O)C[C@@]5(C)[C@]4(C)CC[C@H]3C2(C)C)C(O)C(O)C1O` (stereo not given in full): the GI50 with SK-MEL-28 was 2.08 µM (inactive); with U-251, 5.83 µM (inactive); with UO-31, 1.75 µM (inactive); with SK-MEL-5, 3.4 µM (inactive); in the experiment on Malme-3M it was 4.16 µM (inactive); with COLO 205, 1.66 µM (inactive). The GI50 was 11.4 µM (inactive) in the experiment with RXF 393; 3.09 µM (inactive) in the experiment with UACC-257; 3.05 µM (inactive) in the experiment on SF-295; 2.66 µM (inactive) in the experiment with NCI-H522; 1.95 µM (inactive) in the experiment on MDA-MB-435; 6.82 µM (inactive) with OVCAR-3. For the same compound, the GI50 is 2.71 µM (inactive) in the experiment on MDA-MB-231; 4.19 µM (inactive) in the experiment with PC-3; 1.78 µM (inactive) in the experiment with MDA-N; 8.53 µM (inactive) in the experiment on LOX IMVI; 3.54 µM (inactive) in the experiment with ACHN; 5.14 µM (inactive) in the experiment on SW-620. Moreover, the figures for the GI50 in the experiment with SN12C and in the experiment on 786-0 were 1.8 µM (inactive) and 6.32 µM (inactive), respectively.
Turning to `CC(C)C(=O)/C=C/c1c(Cl)cccc1Cl`, the GI50 was 5.81 µM (inactive) in the experiment on SK-MEL-28; 3.82 µM (inactive) with U-251; 4.3 µM (inactive) in the experiment on UO-31; 4.95 µM (inactive) with SK-MEL-5; 4.45 µM (inactive) with Malme-3M; 10.4 µM (inactive) in the experiment with COLO 205. Also, the GI50 in the experiment with RXF 393 was 5.43 µM (inactive); in the experiment with UACC-257, 7.41 µM (inactive); in the experiment on SF-295 it was 11.6 µM (inactive); in the experiment with NCI-H522 it was 1.19 µM (inactive); in the experiment on MDA-MB-435, 3.08 µM (inactive); in the experiment with OVCAR-3, 2.41 µM (inactive). Besides, the GI50 in the experiment with MDA-MB-231 is 4.28 µM (inactive); with PC-3 it was 11.5 µM (inactive); with MDA-N it was 3.05 µM (inactive); in the experiment on LOX IMVI, 2.47 µM (inactive); with ACHN, 4.74 µM (inactive); with SW-620, 2.98 µM (inactive). Besides, the GI50 in the experiment on SN12C was 2.71 µM (inactive); with 786-0, 7.74 µM (inactive).
On to `N=C(N)NS(=O)(=O)c1ccc(NNC(=O)c2cccc3c(O)c4ccccc4nc23)cc1`, for which the GI50 was 26.2 µM (inactive) in the experiment on SK-MEL-28; 32.8 µM (inactive) with U-251; 18.9 µM (inactive) with UO-31; 17.1 µM (inactive) with SK-MEL-5; 19.6 µM (inactive) with Malme-3M; 24.7 µM (inactive) with COLO 205. Further, the GI50 is 38.1 µM (inactive) in the experiment on RXF 393; 31.6 µM (inactive) with UACC-257; 35.7 µM (inactive) in the experiment with SF-295; 21.6 µM (inactive) in the experiment on NCI-H522; 25.5 µM (inactive) with MDA-MB-435; 24.1 µM (inactive) with OVCAR-3. The GI50 with MDA-MB-231 is 37.6 µM (inactive); in the experiment with PC-3, 28.4 µM (inactive); with MDA-N, 25.2 µM (inactive); in the experiment on LOX IMVI it was 24.5 µM (inactive); in the experiment on ACHN it was 21.1 µM (inactive); in the experiment on SW-620, 32.7 µM (inactive). For the same compound, the GI50 with SN12C is 33.8 µM (inactive); in the experiment on 786-0, 38.4 µM (inactive).
In the case of `CC(C)(C)[Si](C)(C)OCC1CCC(n2cnc3c(=O)[nH]cnc32)O1` (stereo not given), the GI50 is > 100 µM (inactive) in the experiment on SK-MEL-28; > 100 µM (inactive) in the experiment on U-251; > 100 µM (inactive) with UO-31; 32.5 µM (inactive) in the experiment on SK-MEL-5; 78.9 µM (inactive) with Malme-3M; > 100 µM (inactive) in the experiment on COLO 205. The GI50 in the experiment on RXF 393, in the experiment with UACC-257, in the experiment with SF-295, in the experiment on NCI-H522, in the experiment on MDA-MB-435 and with OVCAR-3 was > 100 µM (inactive) in each case. The GI50 in the experiment with MDA-MB-231, in the experiment on PC-3, in the experiment on MDA-N, in the experiment on LOX IMVI, in the experiment with ACHN and in the experiment with SW-620 was > 100 µM (inactive) throughout. In addition, the GI50 in the experiment on SN12C and in the experiment on 786-0 was > 100 µM (inactive) each time.
As to `CCN1C/C(=C\c2cc(OC)c(OC)c(OC)c2)C2=NN(c3ccccc3)C(c3cc(OC)c(OC)c(OC)c3)C2C1` (stereo not given), the GI50 in the experiment with SK-MEL-28 was 0.871 µM (active); in the experiment on U-251 it was 0.652 µM (active); in the experiment on UO-31, 2.08 µM (inactive); in the experiment on SK-MEL-5, 3.74 µM (inactive); in the experiment with Malme-3M it was 0.203 µM (active); with COLO 205, 2.36 µM (inactive). Also, the GI50 in the experiment with RXF 393 is 0.75 µM (active); in the experiment on UACC-257, 3.35 µM (inactive); in the experiment on SF-295 it was 2.54 µM (inactive); with NCI-H522 it was 1.13 µM (inactive); in the experiment on MDA-MB-435, 1.52 µM (inactive); in the experiment on OVCAR-3, 3.63 µM (inactive). For the same compound, the GI50 was 0.525 µM (active) in the experiment on MDA-MB-231; 1.08 µM (active) with PC-3; 2.41 µM (inactive) in the experiment with MDA-N; 2.08 µM (inactive) with LOX IMVI; 9.33 µM (inactive) with ACHN; 2.56 µM (inactive) in the experiment on SW-620. For the same compound, the GI50 was 2.47 µM (inactive) in the experiment on SN12C and 0.398 µM (active) in the experiment on 786-0.
For the compound `NC(=O)CNC(=O)C1CC(O)CN1C(=O)C1CCCN1C(=O)OCc1ccccc1` (stereo not drawn) (Cbz-Pro-[Hyp]-Gly-NH2; configuration not given here), the GI50 with SK-MEL-28, with U-251, in the experiment with UO-31, with SK-MEL-5, with Malme-3M and with COLO 205 was > 100 µM (inactive) throughout. Besides, the GI50 in the experiment on RXF 393, in the experiment with UACC-257, with SF-295, in the experiment on NCI-H522, in the experiment with MDA-MB-435 and in the experiment with OVCAR-3 was > 100 µM (inactive) in each case. In addition, the GI50 with MDA-MB-231, with PC-3, with MDA-N, with LOX IMVI, with ACHN and with SW-620 was > 100 µM (inactive) throughout. Moreover, the GI50 in the experiment with SN12C and in the experiment with 786-0 was > 100 µM (inactive) throughout.
Take `O=C(NCCN1CCCCC1)c1ccc(I)cc1`: the GI50 in the experiment with SK-MEL-28 was > 100 µM (inactive); in the experiment on U-251 it was > 100 µM (inactive); with UO-31 it was > 100 µM (inactive); with SK-MEL-5 it was 33.9 µM (inactive); in the experiment with Malme-3M, > 100 µM (inactive); in the experiment with COLO 205, 94.6 µM (inactive). Also, the GI50 in the experiment on RXF 393 is 42.4 µM (inactive); in the experiment with UACC-257, > 100 µM (inactive); with SF-295 it was > 100 µM (inactive); with NCI-H522, > 100 µM (inactive); in the experiment with MDA-MB-435, > 100 µM (inactive); in the experiment with OVCAR-3, > 100 µM (inactive). Besides, the GI50 in the experiment with MDA-MB-231, with PC-3, in the experiment on MDA-N, in the experiment with LOX IMVI, in the experiment on ACHN and with SW-620 was > 100 µM (inactive) in each case. In addition, the GI50 in the experiment on SN12C and with 786-0 was > 100 µM (inactive) throughout.
For the compound `CC1CC[C@@]2(OC1)O[C@H]1C[C@H]3[C@@H]4CC[C@H]5C[C@@H](OC6OC(CO)C(OC7OC(CO)C(OC8OC(CO)C(O)C(OC9OC(C)C(OC%10OC(C)C(O)C(O)C%10O)C(O)C9O)C8OC8OCC(O)C(O)C8O)C(O)C7O)C(O)C6O)CC[C@]5(C)[C@H]4CC(=O)[C@]3(C)[C@H]1[C@@H]2C` (stereo not given in full), the GI50 is 18.1 µM (inactive) in the experiment on SK-MEL-28; 18.7 µM (inactive) with U-251; 19.2 µM (inactive) in the experiment on UO-31; 16.8 µM (inactive) with SK-MEL-5; 22.4 µM (inactive) with Malme-3M; 16.5 µM (inactive) with COLO 205. Further, the GI50 in the experiment on RXF 393 was 16.9 µM (inactive); in the experiment on UACC-257, 18.2 µM (inactive); with SF-295, 23.9 µM (inactive); in the experiment on NCI-H522, 23.7 µM (inactive); in the experiment on MDA-MB-435, 18.7 µM (inactive); in the experiment on OVCAR-3 it was 22.6 µM (inactive). Further, the GI50 with MDA-MB-231 is 16.1 µM (inactive); in the experiment on PC-3 it was 16.7 µM (inactive); with MDA-N, 20 µM (inactive); in the experiment with LOX IMVI, 23.8 µM (inactive); with ACHN, 17.2 µM (inactive); in the experiment with SW-620, 20.3 µM (inactive). The values for the GI50 in the experiment on SN12C and in the experiment with 786-0 were 20.9 µM (inactive) and 22.4 µM (inactive), respectively.
